Earlier results in patent publication US20230172880A1, “FAST-ACTING TOPICAL ANESTHETIC FORMULATIONS” (priority 2020, published 2023).

Settings: administered directly into tissue

In the case of `CCN(CC)CC(=O)Nc1c(C)cccc1C` [lidocaine], the onset is listed as “less than 2 min”.
